Data: patent US4596806A, “7-piperidino-1,2,3,5-tetrahydroimidazo[2,1-b]-quinazolin-2-one having platelet aggregation inhibitory activity” (Daiichi Seiyaku Co., Ltd., priority 1983, dated 1986)
Converted amounts (≈) assume the structure as drawn. Where two headings read alike, the source gives them in different places.

Legend:
[1] = tested on: platelet aggregation; assay: Test of Platelet Aggregation Inhibition (in vitro), human PRP; assay type: cell-based; conditions: for IC50: Homo sapiens, Platelet, human blood, read-out: Platelet Aggregation Inhibitory Activity (in vitro: IC50)
Procedure: The test was performed as follows in accordance with the method of Ashida et al, Thrombosis and Haemostasis, Vol. 40, p542 (1979).
Blood was taken by puncture from the heart of a Wistar Imamichi rat under anesthesia with pentobarbital into a syringe containing 1/10 volume of a 3.13% aqueous solution of sodium citrate dihydrate, and the citrated blood was centrifuged to obtain a platelet-rich-plasma (PRP). In the same manner, citrated blood was collected from the vein of a healthy human who had not taken aspirin or any other anti-inflammatory agent since before 10 days, followed by centrifugation to obtain PRP. 0.005 ml of each test compound was added to 0.445 ml each of these PRP samples, and the system was warmed at 30° C. for 1 minute. 0.05 ml of an aggregation inducer (ADP or collagen) was then added thereto, and platelet aggregation was determined according to the method of Born, Nature, Vol. 194, p927 (1962). The inhibitory activity of platelet aggregation was expressed in terms of 50% inhibition concentration, and the results obtained are shown in Table 2.

[2] = LD50 (probit method), mouse; conditions: in vivo, iv
[3] = tested on: platelet aggregation; assay: Test of Platelet Aggregation Inhibition (ex vivo; i.v.); design: species or system rat (male Wistar-Imamichi); conditions: Rattus norvegicus, iv, 0.25 h, 15 min, read-out: Platelet Aggregation Inhibitory Activity (in vivo: % inhibition); for inhibition at 0.02 mg/kg: i.v. 0.02 mg/Kg/min; for inhibition at 0.067 mg/kg: i.v. 0.067 mg/Kg/min
Procedure: As test animals, 5 male Wistar-Imamichi rats (body weight: about 270 g) that had been allowed food and water ad libitum were used per group. The test compound was dissolved in a physiological saline solution (J.P.) and continuously injected to the rats under anesthesia with pentobarbital through the femoral vein. 15 minutes later, citrated blood was taken from the heart, and platelet aggregation was determined in the same manner as in Test Example 2.

[4] = tested on: B16BL6-induced aggregation; assay: Test of Inhibition of Platelet Aggregation Caused by Cancer Cells (ex vivo), B16BL6; assay type: in vivo, C57BL/6 mouse; conditions: 1 mg/kg or more, i.v. or oral
Procedure: (§1) The compound of the invention (dihydrochloride monohydrate) dissolved in a physiological saline solution (J.P.) was intravenously or orally administered to a 7-week-old C57BL/6 male mouse (body weight: about 20 g). Three minutes after the intravenous administration or 1 hour later from the oral administration, blood was taken from the abdominal vein into a syringe containing 1/10 volume of a 3.13% aqueous solution of sodium citrate dihydrate and PRP was prepared as described before in Test Example 6. The PRP was placed in a reaction tube under the same conditions as in Test Example 6, and 5 μl of a 200 mM calcium chloride aqueous solution was added thereto. One minute later, 50 μl of a B16BL6 (5×10^4 cells/50 μl)- or a 3LL (2×10^6 cells/50 μl)-cell suspension was added to the system. In the same manner as in Test Example 6, platelet aggregation was determined.

[5] = tested on: circulatory system; assay: Test of Influence on Circulatory System (blood pressure, heart beat); assay type: in vivo, rat (male normal SLC-Wistar); conditions: p.o. 50 mg/Kg
Procedure: 5 or 6 male normal SLC-Wistar rats per group (body weight: 205-255 g) orally received 50 mg/Kg of the test compound, and the blood pressure (tail cuff method) and the heart beats were measured with the passage of time in order to elucidate influences of the test compound on the circulatory system.

[6] = tested on: platelet aggregation; assay: Test of Platelet Aggregation Inhibition (ex vivo, p.o.); assay type: in vivo, rat (male Wistar Imamichi); conditions: for inhibition at 1 mg/kg / inhibition at 10 mg/kg: Rattus norvegicus, Platelet, po, 1 h, read-out: Platelet Aggregation Inhibitory Activity (ex vivo: % inhibition); for inhibition at 1 mg/kg: p.o. 1 mg/Kg; for inhibition at 10 mg/kg: p.o. 10 mg/Kg
Procedure: One hour later, citrated blood was taken from the heart, and platelet aggregation was determined in the same manner as described in Test Example 2.

[7] = tested on: B16BL6-Induced Acute Pulmonary Embolism; assay: Test of Inhibition of Death by Acute Pulmonary Embolism; assay type: in vivo, C57BL/6 mouse
Procedure: The compound of the present invention (dihydrochloride monohydrate) was dissolved in a physiological saline solution (J.P.) and intravenously administered to the tail vein of a 5-week-old (C57BL/6 male mouse (body weight: about 18.5 g) at a dose of 10 mg/kg or 30 mg/kg. After 3 minutes, 5×10^5 cells of B16BL6 were intravenously inoculated to the tail vein. The death ratios 3 and 10 minutes after the inoculation are shown in Table 6.

[8] = tested on: 3LL; assay: Test of Inhibition on Pulmonary Metastasis, 3LL; assay type: in vivo, C57BL/6 mouse; conditions: day 11, mean ± standard error
Procedure: 1×10^5 cells/animal of B16BL6 or 7×10^5 cells/animal of 3LL were inoculated to the tail vein of 10 to 12 6-week-old C57BL/6 male mice per group (body weight: about 18.5 g). The compound (I) (dihydrochloride monohydrate) dissolved in a physiological saline solution (J.P.) was administered to each animal at a dose of 1, 3 or 10 mg/kg orally 24 hours, 1 hour before and 1 hour after the inoculation, or intravenously immediately before the inoculation. On the 13th day from the inoculation of B16BL6 or 11th day from the inoculation of 3LL, the number of metastatic nodules in the lungs was counted using an operating microscope.

[9] = tested on: 3LL-induced aggregation; assay: Test of Inhibition of Platelet Aggregation Caused by Cancer Cells (ex vivo), 3LL; assay type: in vivo, C57BL/6 mouse
Procedure: as §1

[10] = Solubility Test (water-solubility); assay type: physicochemical

O=C1CN2Cc3cc(N4CCCCC4)ccc3N=C2N1 [Compound (I), 7-piperidino-1,2,3,5-tetrahydroimidazo[2,1-b]quinazolin-2-one]
IC50 ([1]; inducer ADP): 2500 nM | IC50 ([1]; inducer collagen): 530 nM | anti-platelet aggregation activity (in words) ([1]; in vitro, Table 2 results (human and rat PRP)): substantially equal to that of BL-3459 and BL-4162 | LD50 ([2]; female ddy mouse): 380 mg/kg | LD50 ([2]; male ddy mouse): 314 mg/kg | inhibition at 0.02 mg/kg ([3]; inducer ADP): 11% | inhibition at 0.02 mg/kg ([3]; inducer collagen): 86% | inhibition at 0.067 mg/kg ([3]; inducer ADP): 37% | inhibition at 0.067 mg/kg ([3]; inducer collagen): 100% | inhibition of B16BL6-induced aggregation (ex vivo) [4]: completely inhibited | reduction in blood pressure and increase in heart beat (in words) [5]: relatively small and also these changes can be restored in short periods of time | Increase in Heart Beat ([5]; 1 hr after admin.): 27% | Reduction in Blood Pressure ([5]; 1 hr after admin.): 18% | Increase in Heart Beat ([5]; 2 hr after admin.): 32% | Reduction in Blood Pressure ([5]; 2 hr after admin.): 12% | Increase in Heart Beat ([5]; 3 hr after admin.): 27% | Reduction in Blood Pressure ([5]; 3 hr after admin.): 12% | Increase in Heart Beat ([5]; 5 hr after admin.): 25% | Reduction in Blood Pressure ([5]; 5 hr after admin.): 12% | Increase in Heart Beat ([5]; 6 hr after admin.): 17% | Reduction in Blood Pressure ([5]; 6 hr after admin.): 9% | inhibition at 1 mg/kg ([6]; inducer ADP): 16.8% | inhibition at 1 mg/kg ([6]; inducer collagen): 20.6% | inhibition at 10 mg/kg ([6]; inducer ADP): 33.8% | inhibition at 10 mg/kg ([6]; inducer collagen): 59.5% | aggregation inhibitory activity ex vivo (in words) ([6]; p.o. 10 mg/Kg or 1 mg/Kg, ADP- or collagen-induced): significant aggregation inhibitory activity | Number of Dead Animals/Number of Tested Animals ([7]; i.v. 10 mg/kg, after 3 min): 2/9 | Number of Dead Animals/Number of Tested Animals ([7]; i.v. 10 mg/kg, after 10 min): 4/9 | Number of Dead Animals/Number of Tested Animals ([7]; i.v. 30 mg/kg, after 3 min): 1/9 | Number of Dead Animals/Number of Tested Animals ([7]; i.v. 30 mg/kg, after 10 min): 4/9 | Number of Metastatic Nodules in the Lungs ([8]; 1 mg/kg): 15.4 ± 2.8 | Number of Metastatic Nodules in the Lungs ([8]; 3 mg/kg): 5.9 ± 1.3 | Number of Metastatic Nodules in the Lungs ([8]; 10 mg/kg): 4.0 ± 1.1 | delay of 3LL-induced aggregation (ex vivo) ([9]; 10 mg/kg (i.v.)): ≥ 150% | inhibition of 3LL-induced aggregation (ex vivo) ([9]; 30 mg/kg (i.v.)): completely inhibited | solubility ([10]; Water at pH 4): 4.1 mg/mL (≈ 15.2 mM) | solubility ([10]; pH 2, Tap Water, solution pH about 2): 270 mg/mL (≈ 999 mM)
